The target of one experiment is human arginase I (ARG I) (Homo sapiens (Human), UniProt P05089). Put plainly: Inhibition of arginase I, spectrophotometric urea assay at 530 nm. It counts as biochemical. The conditions noted are these: potency rank 1-5; pH 7.4, 37° C., 60 minutes. The procedure:
(§1) Inhibition of arginase I (ARG I) and arginase II (ARG II) by Formula I or Formula II compounds is followed spectrophotometrically at 530 nm. The compound to be tested was dissolved in DMSO at an initial concentration 50-fold greater than its final concentration in the cuvette. 10 μl of the stock solution was diluted in 90 μl of the assay buffer that comprises 0.1M sodium phosphate buffer containing 130 mM NaCl, pH 7.4, to which is added ovalbumin (OVA) at a concentration of 1 mg/ml. Solutions of arginase I and II were prepared in 100 mM sodium phosphate buffer, pH 7.4 containing 1 mg/ml of OVA to give an arginase stock solution at a final concentration of 100 ng/ml.
(§2) To each well of a 96-well microtiter plate was added 40 μl of enzyme, 10 μl of an inventive compound and 10 μl of enzyme substrate (L-arginine+manganese sulfate). For wells that were used as positive controls, only the enzyme and its substrate were added, while wells used as negative controls contained only manganese sulfate.
(§3) After incubating the microtiter plate at 37° C. for 60 minutes, 150 μl of a urea reagent obtained by combining equal proportions (1:1) of reagents A and B is added to each well of the microtiter plate to stop the reaction. The urea reagent is made just before use by combining Reagent A (10 mM o-phthaldialdehyde, and 0.4% polyoxyethylene (23) lauryl ether (w/v) in 1.8 M sulfuric acid) with Reagent B (1.3 mM primaquine diphosphate, 0.4% polyoxyethylene (23) lauryl ether (w/v), 130 mM boric acid in 3.6 mM sulfuric acid). After quenching the reaction mixture, the microtiter plate is allowed to stand for an additional 10 minutes at room temperature to allow the color to develop. The inhibition of arginase was computed by measuring the optical density (OD) of the reaction mixture at 530 nm and normalizing the OD value to percent inhibition observed in the control. The normalized OD is then used to generate a dose-response curve by plotting the normalized OD values against log [concentration] and using regression analysis to compute the IC50 values.

Experiment [1] concerns the target human arginase II (ARG II) (Homo sapiens (Human), UniProt P78540). Put plainly: Inhibition of arginase II, spectrophotometric urea assay at 530 nm. Format: biochemical. The note with it: potency rank 1-5; pH 7.4, 37° C., 60 minutes. How it is done: as §1, §2, §3

Results on 28 molecules are retold here after US10098902B2, “Arginase inhibitors as therapeutics” (Mars, Incorporated, priority 2010, dated 2018).

Molecules are shown by their SMILES.

Sequence of human arginase I (ARG I) (P05089 whole entry): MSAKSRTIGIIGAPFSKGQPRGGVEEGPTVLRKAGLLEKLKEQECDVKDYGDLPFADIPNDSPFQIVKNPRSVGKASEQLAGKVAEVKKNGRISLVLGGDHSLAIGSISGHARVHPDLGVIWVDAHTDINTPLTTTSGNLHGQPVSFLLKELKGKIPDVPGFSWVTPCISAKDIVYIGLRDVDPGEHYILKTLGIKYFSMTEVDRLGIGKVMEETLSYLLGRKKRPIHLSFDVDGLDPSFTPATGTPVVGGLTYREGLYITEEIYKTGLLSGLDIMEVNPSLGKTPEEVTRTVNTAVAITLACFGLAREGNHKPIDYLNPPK
Sequence of human arginase II (ARG II) (P78540 23-354): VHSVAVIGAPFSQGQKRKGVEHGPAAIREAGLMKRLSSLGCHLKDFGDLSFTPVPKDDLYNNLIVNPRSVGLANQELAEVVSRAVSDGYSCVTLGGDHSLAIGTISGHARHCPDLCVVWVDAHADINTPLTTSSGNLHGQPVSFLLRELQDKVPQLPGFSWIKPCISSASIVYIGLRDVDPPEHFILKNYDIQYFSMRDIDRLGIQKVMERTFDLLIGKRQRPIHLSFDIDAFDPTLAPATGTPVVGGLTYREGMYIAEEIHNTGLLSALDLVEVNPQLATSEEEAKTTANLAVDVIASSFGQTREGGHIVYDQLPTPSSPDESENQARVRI

Broadly, the IC50 is the point on the concentration scale where inhibition reaches its midpoint. The low end stands for greater potency in that assay, the high end for weaker potency in that assay. Take `N[C@@]1(C(=O)O)CN(CCCc2ccc(Cl)cc2)C[C@@H]1CCCB(O)O` [Example 22, (3R,4S)-3-amino-4-(3-boronopropyl)-1-(3-(4-chlorophenyl)propyl)pyrrolidine-3-carboxylic acid]: the half-inhibitory concentration (IC50) (against human arginase I (ARG I); in experiment [1]) was 251 to 1000 nM throughout.
For `N[C@@]1(C(=O)O)CN(c2ncnc3nc[nH]c23)C[C@@H]1CCCB(O)O` [Example 23, (3R,4S)-3-amino-4-(3-boronopropyl)-1-(7H-purin-6-yl)pyrrolidine-3-carboxylic acid], the values for the IC50 (at human arginase I (ARG I); in experiment [1]) were 251 to 1000 nM and 1000 to 2000 nM, respectively.
On the same counts, the results for `NCCN1C[C@H](CCCB(O)O)[C@](N)(C(=O)O)C1` [Example 24, (3R,4S)-3-amino-1-(2-aminoethyl)-4-(3-boronopropyl)pyrrolidine-3-carboxylic acid] are 0.1 to 250 nM and 0.1 to 250 nM.
With `N[C@@]1(C(=O)O)CN(c2cncc(C(=O)O)c2)C[C@@H]1CCCB(O)O` [Example 25, 5-((3R,4S)-3-amino-4-(3-boronopropyl)-3-carboxypyrrolidin-1-yl)nicotinic acid], the half-maximal inhibitory concentration (IC50) (against human arginase I (ARG I); in experiment [1]) was 251 to 1000 nM throughout.
For `N[C@@]1(C(=O)O)CN(C2CCNCC2)C[C@@H]1CCCB(O)O` [Example 26, (3R,4S)-3-amino-4-(3-boronopropyl)-1-(piperidin-4-yl)pyrrolidine-3-carboxylic acid], the IC50 (against human arginase I (ARG I); in experiment [1]) was 251 to 1000 nM each time.
Turning to `N[C@@]1(C(=O)O)CN(C2CCNC2)C[C@@H]1CCCB(O)O` (stereo partly drawn) [Example 27, (3R,4S)-3-amino-4-(3-boronopropyl)-1,3′-bipyrrolidine-3-carboxylic acid], the half-maximal inhibitory concentration (IC50) (on human arginase I (ARG I); in experiment [1]) was 0.1 to 250 nM throughout.
For `N[C@@]1(C(=O)O)CN(C2CCCNC2)C[C@@H]1CCCB(O)O` (stereo partly drawn) [Example 28, (3R,4S)-3-amino-4-(3-boronopropyl)-1-(piperidin-3-yl)pyrrolidine-3-carboxylic acid], the IC50 at human arginase I (ARG I) is 0.1 to 250 nM; in experiment [1], 251 to 1000 nM.
Regarding `N[C@@]1(C(=O)O)CN(Cc2ccccn2)C[C@@H]1CCCB(O)O` [Example 29, (3R,4S)-3-amino-4-(3-boronopropyl)-1-(pyridin-2-ylmethyl)pyrrolidine-3-carboxylic acid], the IC50 (on human arginase I (ARG I); in experiment [1]) was 1000 to 2000 nM throughout.
In the case of `N[C@@]1(C(=O)O)CN(C2CCC(C(=O)O)CC2)C[C@@H]1CCCB(O)O` (stereo partly drawn) [Example 30, (3R,4S)-3-amino-4-(3-boronopropyl)-1-(4-carboxycyclohexyl)pyrrolidine-3-carboxylic acid], the IC50 fell in the range of 251 to 1000 nM against human arginase I (ARG I) and 1000 to 2000 nM in experiment [1].
The matching figures for `Cn1ccnc1CN1C[C@H](CCCB(O)O)[C@](N)(C(=O)O)C1` [Example 31, (3R,4S)-3-amino-4-(3-boronopropyl)-1-((1-methyl-1H-imidazol-2-yl)methyl)pyrrolidine-3-carboxylic acid]: 0.1 to 250 nM and 251 to 1000 nM.
On the same counts, the results for `Cc1ccncc1N1C[C@H](CCCB(O)O)[C@](N)(C(=O)O)C1` [Example 32, (3R,4S)-3-amino-4-(3-boronopropyl)-1-(4-methylpyridin-3-yl)pyrrolidine-3-carboxylic acid] are 1000 to 2000 nM and 1000 to 2000 nM.
On the same counts, the results for `N[C@@]1(C(=O)O)CN(CCN2CCCCC2)C[C@@H]1CCCB(O)O` [Example 33, (3R,4S)-3-amino-4-(3-boronopropyl)-1-(2-(piperidin-1-yl)ethyl)pyrrolidine-3-carboxylic acid] are 0.1 to 250 nM and 251 to 1000 nM.
Regarding `CCN(CC)CCN1C[C@H](CCCB(O)O)[C@](N)(C(=O)O)C1` [Example 34, (3R,4S)-3-amino-4-(3-boronopropyl)-1-(2-(diethylamino)ethyl)pyrrolidine-3-carboxylic acid], the IC50 against human arginase I (ARG I) was 0.1 to 250 nM; in experiment [1], 251 to 1000 nM.
Turning to `CN[C@@]1(C(=O)O)CNC[C@@H]1CCCB(O)O` [Example 35, (3R,4S)-4-(3-boronopropyl)-3-(methylamino)pyrrolidine-3-carboxylic acid], the IC50 (against human arginase I (ARG I); in experiment [1]) was 251 to 1000 nM each time.
On to `CN1CCCCC1CN1C[C@H](CCCB(O)O)[C@](N)(C(=O)O)C1` (stereo partly drawn) [Example 36, (3R,4S)-3-amino-4-(3-boronopropyl)-1-((1-methylpiperidin-2-yl)methyl)pyrrolidine-3-carboxylic acid], for which the IC50 against human arginase I (ARG I) was in the range of 0.1 to 250 nM; in experiment [1], 251 to 1000 nM.
On to `N[C@@]1(C(=O)O)CN(CC2CCCN2)C[C@@H]1CCCB(O)O` (stereo partly drawn) [Example 37, (3R,4S)-3-amino-4-(3-boronopropyl)-1-(pyrrolidin-2-ylmethyl)pyrrolidine-3-carboxylic acid], for which the IC50 at human arginase I (ARG I) was in the range of 0.1 to 250 nM; in experiment [1], 251 to 1000 nM.
On the same counts, the results for `N[C@@]1(C(=O)O)CN(CCN2CCCC2)C[C@@H]1CCCB(O)O` [Example 38, (3R,4S)-3-amino-4-(3-boronopropyl)-1-(2-(pyrrolidin-1-yl)ethyl)pyrrolidine-3-carboxylic acid] are 0.1 to 250 nM and 0.1 to 250 nM.
As to `N[C@@]1(C(=O)O)CN(C[C@@H]2Cc3ccccc3CN2)C[C@@H]1CCCB(O)O` [Example 39, (3R,4S)-3-amino-4-(3-boronopropyl)-1-(((S)-1,2,3,4-tetrahydroisoquinolin-3-yl)methyl)pyrrolidine-3-carboxylic acid], the concentration for half-maximal inhibition (IC50) (against human arginase I (ARG I); in experiment [1]) was 0.1 to 250 nM throughout.
As to `N[C@@]1(C(=O)O)CN(CCNCc2ccccc2)C[C@@H]1CCCB(O)O` [Example 40, (3R,4S)-3-amino-1-(2-(benzylamino)ethyl)-4-(3-boronopropyl)pyrrolidine-3-carboxylic acid], the half-inhibitory concentration (IC50) (against human arginase I (ARG I); in experiment [1]) was 0.1 to 250 nM each time.
For `N[C@@]1(C(=O)O)CN(CCNCc2ccc(Cl)c(Cl)c2)C[C@@H]1CCCB(O)O` [Example 41, (3R,4S)-3-amino-4-(3-boronopropyl)-1-(2-(3,4-dichlorobenzylamino)ethyl)pyrrolidine-3-carboxylic acid], the half-inhibitory concentration (IC50) (at human arginase I (ARG I); in experiment [1]) was 0.1 to 250 nM each time.
As for `N[C@@]1(C(=O)O)CN(C(=O)Nc2ccc(Cl)cc2)C[C@@H]1CCCB(O)O` [Example 42, (3R,4S)-3-amino-4-(3-boronopropyl)-1-(4-chlorophenylcarbamoyl)pyrrolidine-3-carboxylic acid], the IC50 (at human arginase I (ARG I); in experiment [1]) was 251 to 1000 nM each time.
For `N[C@@]1(C(=O)O)CN(C(=O)[C@@H]2CCCN2)C[C@@H]1CCCB(O)O` [Example 43, (3R,4S)-3-amino-4-(3-boronopropyl)-1-((S)-pyrrolidine-2-carbonyl)pyrrolidine-3-carboxylic acid], the results for the concentration for half-maximal inhibition (IC50) (against human arginase I (ARG I); in experiment [1]) were 0.1 to 250 nM and 251 to 1000 nM, respectively.
The matching figures for `NC1CCCCC1N1C[C@H](CCCB(O)O)[C@](N)(C(=O)O)C1` (stereo partly drawn) [Example 44, (3R,4S)-3-amino-1-(2-aminocyclohexyl)-4-(3-boronopropyl)pyrrolidine-3-carboxylic acid]: 0.1 to 250 nM and 0.1 to 250 nM.
On the same counts, the results for `N[C@@]1(C(=O)O)CN(C(=O)Cc2ccc(Cl)cc2)C[C@@H]1CCCB(O)O` [Example 45, (3R,4S)-3-amino-4-(3-boronopropyl)-1-(2-(4-chlorophenyl)acetyl)pyrrolidine-3-carboxylic acid] are 251 to 1000 nM and 251 to 1000 nM.
On the same counts, the results for `COc1ccc(C(=O)N2C[C@H](CCCB(O)O)[C@](N)(C(=O)O)C2)cc1` [Example 47, (3R,4S)-3-amino-4-(3-boronopropyl)-1-(4-methoxybenzoyl)pyrrolidine-3-carboxylic acid] are 251 to 1000 nM and 251 to 1000 nM.
On to `N[C@@]1(C(=O)O)CN(CC2Cc3ccc(Cl)cc3CN2)C[C@@H]1CCCB(O)O` (stereo partly drawn) [Example 49, (3R,4S)-3-amino-4-(3-boronopropyl)-1-((7-chloro-1,2,3,4-tetrahydroisoquinolin-3-yl)methyl)pyrrolidine-3-carboxylic acid], for which the IC50 (at human arginase I (ARG I); in experiment [1]) was 0.1 to 250 nM throughout.
On to `Nc1ccccc1S(=O)(=O)N1C[C@H](CCCB(O)O)[C@](N)(C(=O)O)C1` [Example 50, (3R,4S)-3-amino-1-(2-aminophenylsulfonyl)-4-(3-boronopropyl)pyrrolidine-3-carboxylic acid], for which the 50% inhibitory concentration (IC50) against human arginase I (ARG I) was 251 to 1000 nM; in experiment [1], 1000 to 2000 nM.
As to `N[C@@]1(C(=O)O)CN(CC2Cc3cc(Cl)ccc3CN2)C[C@@H]1CCCB(O)O` (stereo partly drawn) [Example 51, (3R,4S)-3-amino-4-(3-boronopropyl)-1-((6-chloro-1,2,3,4-tetrahydroisoquinolin-3-yl)methyl)pyrrolidine-3-carboxylic acid], the IC50 (against human arginase I (ARG I); in experiment [1]) was 0.1 to 250 nM throughout.
